# Earlier results, collected in patent US20060013862A1, “Onychomycosis: a new process for cure” (priority 2004, published 2006).
# System: onychomycosis
# [1] = itraconazole vs terbinafine-treated patients
smiles,measurement,setting,value
CN(C/C=C/C#CC(C)(C)C)Cc1cccc2ccccc12 [terbinafine],Mycological relapse rate,[1],23%
same,clinical relapse rate,[1],21%
same,Mycological cure without second intervention treatment,share of treated subjects (34 of 74 terbinafine),46%
